Data reported in patent US20200197266A1, “MICROGELS FOR THE DELIVERY OF COSMETIC ACTIVE ORGANIC SUBSTANCES” (LVMH RECHERCHE, priority 2017, published 2020).
Converted amounts (≈) assume the structure as drawn. Read-outs that look alike come from different tables or passages of the source.

Key:
[1] = cited from earlier work
[2] = In vitro release of cosmetic active molecules from loaded microgels by a dialysis method; settings: 35% ethanol in dialysate medium, pH 6, 25° C.
Protocol: The study of active molecules release kinetics was carried out by a dialysis method in order to verify that no microgel diffusion occur in dialysate medium (that may also be called “release medium”), and in order to observe the cosmetic active molecule release profile against time.
For that, active molecules-loaded microgel particle dispersions (1 mg/mg microgel) were dialyzed against a dialysate medium. Diffusion of the cosmetic active molecule from the loaded-microgel dispersion medium to the dialysate medium is observed, until an equilibrium concentration is reached between both media.
Loaded-microgel particles comprising an active molecule in an amount of 1 mg/(mg unloaded microgel) were placed inside a dialysis tube and dialyzed in different buffered dialysate media (having different pH, having different temperature, containing a solvent and/or containing a surfactant). The buffered dialysate medium can contain ethanol, citric acid, sodium phosphate dibasic or/and polyoxyethylene monooleate sorbitan (also named Polysorbate 80, Tween® 80 or INCI […]). Active substance concentration in the dialysate medium was determined by UV-Vis.
The effect of temperature on the release kinetics of active molecules was investigated with the dialysate method maintaining pH of the dialysate medium constant at 4.5. The in vitro release was studied at two different temperatures: 25° C. […]

[3] = cited from earlier work; remark: listed apart in the source

Row | Compound | Solubility in water ([1]; at 25° C.) [µg/mL] | Solubility in ethanol [1] | Incubation time in which 100% is released [2] [h] | Solubility in water [1] | pKa [3]
1 | CC(C)=CCCC(C)CCO (stereo not shown) [Citronellol, 3,7-dimethyloct-6-en-1-ol] | 200 (≈ 1280 µM) | very soluble in ethanol | – | – | –
2 | CCCCC(CC)COC(=O)c1ccccc1O (stereo not shown) [Escalol, 2-ethylhexyl salicylate] | – | soluble in ethanol | ≤ 6 | slighty soluble in water | –
3 | O=C(O)c1ccccc1O [Salicylic acid, 2-Hydroxybenzoic acid, reference compound] | – | soluble in ethanol | – | – | –
4 | CCCCCCOC(=O)c1ccccc1C(=O)c1ccc(N(CC)CC)cc1O [Uvinul-A, hexyl 2-[4-(diethylamino)-2-hydroxybenzoyl]benzoate] | – | soluble in ethanol | – | insoluble in water | –
5 | Hyaluronic acid | – | – | – | soluble in water | 3
